Patent US6355799B1, “Substituted benzene compounds, process for their preparation, and herbicidal and defoliant compositions containing them” (ISK Americas Incorporated, priority 1997, dated 2002)

Assays:
Type in all cases: in vivo
[1] = tested on: field corn (Zea mays L., var. Dekalb 535, CORN); assay: Pre-emerge test, crop safety; details: rating scale 0-100, 14 days after application
Summary of the method: (§1)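 Fourteen days after spraying, crop and weed injury was graded visually from 0, no effect, to 100, every plant dead. Test substances were dissolved in acetone and applied at 15–1000 g ai/ha with a flat-fan nozzle. Application was either pre-emergence, one day after sowing, or post-emergence at the 2–3 leaf stage.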

[2] = tested on: upland rice (Oryza sp., var. Tebonnet, RICE); assay: Pre-emerge test, crop safety; details: rating scale 0-100, 14 days after application
Summary of the method: as §1

[3] = tested on: field corn (Zea mays L., var. Dekalb 535, CORN); assay: Post-emerge test, crop safety; details: rating scale 0-100 (0 no damage, 100 complete death), 14 days after application
Summary of the method: (§2)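 Each test used a mechanized track sprayer delivering 187 l/ha of acetone solution at 15–1000 g ai/ha. Post-emerge foliage at 2–3 leaves was treated with added 0.25% v/v non-ionic surfactant and bottom-watered only. Injury was assessed on day 14, where 100 means total kill.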

[4] = tested on: upland rice (Oryza sp., var. Tebonnet, RICE); assay: Post-emerge test, crop safety; details: rating scale 0-100 (0 no damage, 100 complete death), 14 days after application
Summary of the method: as §2

[5] = tested on: ivyleaf morningglory (Ipomoea hederacea, IPOHE); assay: Pre-emerge test, greenhouse herbicide activity screening; details: rating scale 0-100, 14 days after application
Summary of the method: (§3)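 Plants grown in 10 cm pots of sandy loam mix received acetone-dissolved compounds through a moving flat-fan nozzle. Doses ranged from 15 to 1000 g ai/ha. Pre-emerge pots were seeded one day earlier, post-emerge pots 8–21 days earlier. Fourteen days on, each pot was graded 0–100 for damage.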

[6] = tested on: sicklepod (Cassia obtusifolia, CASOB); assay: as above; details: rating scale 0-100, 14 days after application
Summary of the method: as §3

[7] = tested on: lambsquarters (Chenopodium album, CHEAL); assay: as above; details: rating scale 0-100, 14 days after application
Summary of the method: as §3

[8] = tested on: johnsongrass (Sorghum halepense, SORHA); assay: as above; details: rating scale 0-100, 14 days after application
Summary of the method: as §3

[9] = tested on: green foxtail (Setaria viridis, SETVI); assay: as above; details: rating scale 0-100, 14 days after application
Summary of the method: as §3

[10] = tested on: barnyardgrass (Echinochloa crus-galli, ECHCG); assay: as above; details: rating scale 0-100, 14 days after application
Summary of the method: as §3

[11] = tested on: velvetleaf (Abutilon theophrasti, ABUTH); assay: as above; details: rating scale 0-100, 14 days after application
Summary of the method: as §3

[12] = tested on: large crabgrass (Digitaria sanguinalis, DIGSA); assay: as above; details: rating scale 0-100, 14 days after application
Summary of the method: as §3

[13] = tested on: redroot pigweed (Amaranthus retroflexus, AMARE); assay: as above; details: rating scale 0-100, 14 days after application
Summary of the method: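 Compounds in acetone were track-sprayed at 15-1000 g ai/ha (187 l/ha) on sandy loam pots: pre-emerge one day after seeding, post-emerge at 2-3 leaf stage with 0.25% v/v non-ionic surfactant. Phytotoxicity was rated 14 days later on a 0 (no damage) to 100 (complete death) scale.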

[14] = tested on: redroot pigweed (Amaranthus retroflexus, AMARE); assay: Post-emerge test, greenhouse herbicide activity screening; details: rating scale 0-100 (0 no damage, 100 complete death), 14 days after application
Summary of the method: as §3

[15] = tested on: ivyleaf morningglory (Ipomoea hederacea, IPOHE); assay: as above; details: rating scale 0-100 (0 no damage, 100 complete death), 14 days after application
Summary of the method: as §3

[16] = tested on: sicklepod (Cassia obtusifolia, CASOB); assay: as above; details: rating scale 0-100 (0 no damage, 100 complete death), 14 days after application
Summary of the method: as §3

[17] = tested on: lambsquarters (Chenopodium album, CHEAL); assay: as above; details: rating scale 0-100 (0 no damage, 100 complete death), 14 days after application
Summary of the method: as §3

[18] = tested on: johnsongrass (Sorghum halepense, SORHA); assay: as above; details: rating scale 0-100 (0 no damage, 100 complete death), 14 days after application
Summary of the method: as §3

[19] = tested on: green foxtail (Setaria viridis, SETVI); assay: as above; details: rating scale 0-100 (0 no damage, 100 complete death), 14 days after application
Summary of the method: as §3

[20] = tested on: barnyardgrass (Echinochloa crus-galli, ECHCG); assay: as above; details: rating scale 0-100 (0 no damage, 100 complete death), 14 days after application
Summary of the method: as §3

[21] = tested on: velvetleaf (Abutilon theophrasti, ABUTH); assay: as above; details: rating scale 0-100 (0 no damage, 100 complete death), 14 days after application
Summary of the method: as §3

[22] = tested on: large crabgrass (Digitaria sanguinalis, DIGSA); assay: as above; details: rating scale 0-100 (0 no damage, 100 complete death), 14 days after application
Summary of the method: as §3

COc1c(Cl)cc(F)c(-n2c(=O)cc(C(F)(F)F)n(C)c2=O)c1CC(Cl)C(=O)OCCOc1ccccc1 (single isomer, unassigned) [14-27]
Pre-emerge phytotoxicity rating, crop damage CORN ([1]; 63 g ai/ha): 0 | Pre-emerge phytotoxicity rating, crop damage CORN ([1]; 250 g ai/ha): 0 | Pre-emerge phytotoxicity rating, crop damage RICE ([2]; 63 g ai/ha): 0 | Pre-emerge phytotoxicity rating, crop damage RICE ([2]; 250 g ai/ha): 0 | Post-emerge phytotoxicity rating CORN (crop damage) ([3]; Rate 63 g ai/ha): 5 | Post-emerge phytotoxicity rating CORN (crop damage) ([3]; Rate 250 g ai/ha): 10 | Post-emerge phytotoxicity rating RICE (crop damage) ([4]; Rate 63 g ai/ha): 0 | Post-emerge phytotoxicity rating RICE (crop damage) ([4]; Rate 250 g ai/ha): 0 | Pre-emerge herbicidal activity, phytotoxicity rating IPOHE ([5]; 63 g ai/ha): 0 | Pre-emerge herbicidal activity, phytotoxicity rating IPOHE ([5]; 250 g ai/ha): 0 | Pre-emerge herbicidal activity, phytotoxicity rating CASOB ([6]; 63 g ai/ha): 0 | Pre-emerge herbicidal activity, phytotoxicity rating CASOB ([6]; 250 g ai/ha): 0 | Pre-emerge herbicidal activity, phytotoxicity rating CHEAL ([7]; 63 g ai/ha): 0 | Pre-emerge herbicidal activity, phytotoxicity rating CHEAL ([7]; 250 g ai/ha): 90 | Pre-emerge herbicidal activity, phytotoxicity rating SORHA ([8]; 63 g ai/ha): 0 | Pre-emerge herbicidal activity, phytotoxicity rating SORHA ([8]; 250 g ai/ha): 0 | Pre-emerge herbicidal activity, phytotoxicity rating SETVI ([9]; 63 g ai/ha): 0 | Pre-emerge herbicidal activity, phytotoxicity rating SETVI ([9]; 250 g ai/ha): 0 | Pre-emerge herbicidal activity, phytotoxicity rating ECHCG ([10]; 63 g ai/ha): 0 | Pre-emerge herbicidal activity, phytotoxicity rating ECHCG ([10]; 250 g ai/ha): 0 | Pre-emerge herbicidal activity, phytotoxicity rating ABUTH ([11]; 63 g ai/ha): 0 | Pre-emerge herbicidal activity, phytotoxicity rating ABUTH ([11]; 250 g ai/ha): 30 | Pre-emerge herbicidal activity, phytotoxicity rating DIGSA ([12]; 63 g ai/ha): 0 | Pre-emerge herbicidal activity, phytotoxicity rating DIGSA ([12]; 250 g ai/ha): 90 | Pre-emerge herbicidal activity, phytotoxicity rating AMARE ([13]; 63 g ai/ha): 50 | Pre-emerge herbicidal activity, phytotoxicity rating AMARE ([13]; 250 g ai/ha): 100 | Post-emerge Herbicidal Activity, phytotoxicity rating AMARE ([14]; Rate 63 g ai/ha): 50 | Post-emerge Herbicidal Activity, phytotoxicity rating AMARE ([14]; Rate 250 g ai/ha): 90 | Post-emerge Herbicidal Activity, phytotoxicity rating IPOHE ([15]; Rate 63 g ai/ha): 70 | Post-emerge Herbicidal Activity, phytotoxicity rating IPOHE ([15]; Rate 250 g ai/ha): 50 | Post-emerge Herbicidal Activity, phytotoxicity rating CASOB ([16]; Rate 63 g ai/ha): 50 | Post-emerge Herbicidal Activity, phytotoxicity rating CASOB ([16]; Rate 250 g ai/ha): 30 | Post-emerge Herbicidal Activity, phytotoxicity rating CHEAL ([17]; Rate 63 g ai/ha): 90 | Post-emerge Herbicidal Activity, phytotoxicity rating CHEAL ([17]; Rate 250 g ai/ha): 100 | Post-emerge Herbicidal Activity, phytotoxicity rating SORHA ([18]; Rate 63 g ai/ha): 0 | Post-emerge Herbicidal Activity, phytotoxicity rating SORHA ([18]; Rate 250 g ai/ha): 10 | Post-emerge Herbicidal Activity, phytotoxicity rating SETVI ([19]; Rate 63 g ai/ha): 0 | Post-emerge Herbicidal Activity, phytotoxicity rating SETVI ([19]; Rate 250 g ai/ha): 20 | Post-emerge Herbicidal Activity, phytotoxicity rating ECHCG ([20]; Rate 63 g ai/ha): 99 | Post-emerge Herbicidal Activity, phytotoxicity rating ECHCG ([20]; Rate 250 g ai/ha): 100 | Post-emerge Herbicidal Activity, phytotoxicity rating ABUTH ([21]; Rate 63 g ai/ha): 70 | Post-emerge Herbicidal Activity, phytotoxicity rating ABUTH ([21]; Rate 250 g ai/ha): 80 | Post-emerge Herbicidal Activity, phytotoxicity rating DIGSA ([22]; Rate 63 g ai/ha): 70 | Post-emerge Herbicidal Activity, phytotoxicity rating DIGSA ([22]; Rate 250 g ai/ha): 95
